Source: US10053463B2 (Janssen Pharmaceutica NV, priority 2013, dated 2018)

target: P2X7 (Homo sapiens (Human), UniProt Q99572); test: P2X7 antagonism in human peripheral blood mononuclear cells (PBMCs), IL-1β release; format: cell-based; settings: P2X7; Table 3 (additional runs); 10 μM compound; read-out: PBMC 10 μM (% control)
Method: P2X7 Antagonism in Human Peripheral Blood Mononuclear Cells (PBMCs) and Human Whole Blood.
Human blood was collected using a blood donor program. PBMCs were isolated from blood using a Ficoll density gradient technique. Briefly, blood was laid on Ficoll solution and centrifuged at RT for 20 minutes at 2000 rpm. The buffy layer (between red blood cells and plasma) was carefully collected by aspiration, washed with PBS and centrifuged again at 1500 rpm for 15 minutes. The resulting cell pellet was washed and plated on 96 well-plates for experiments. For the Human Whole Blood experiments, 150 μl of human blood was platted on 96 well-plates. Lipopolysaccharide (LPS) (30 ng/ml) was added to each well and incubated for 1 hour. Test compounds were then added and incubated for 30 minutes. The P2X7 agonist, 2′(3′)-O-(4-benzoylbenzoyl) adenosine 5′-triphosphate (Bz-ATP) was then added at a final concentration of 0.5 mM (PBMC) or 1 mM (blood). Cells were incubated for an additional 1.5 hours. At that point, supernatant was collected and stored for IL-1β assay using manufacturer's protocol for enzyme-linked immunosorbent assay (ELISA). Data was expressed as percent control, where control is defined as the difference in IL-1β release in LPS+Bz-ATP samples and LPS only samples. Data was plotted as response (% control) versus concentration to generate IC50 values. […] Data are analyzed and graphed on Graphpad Prism 5. For analysis, each concentration point is averaged from triplicate values and the averaged values are plotted on Graphpad Prism.

P2X7, sequence (Q99572 whole entry): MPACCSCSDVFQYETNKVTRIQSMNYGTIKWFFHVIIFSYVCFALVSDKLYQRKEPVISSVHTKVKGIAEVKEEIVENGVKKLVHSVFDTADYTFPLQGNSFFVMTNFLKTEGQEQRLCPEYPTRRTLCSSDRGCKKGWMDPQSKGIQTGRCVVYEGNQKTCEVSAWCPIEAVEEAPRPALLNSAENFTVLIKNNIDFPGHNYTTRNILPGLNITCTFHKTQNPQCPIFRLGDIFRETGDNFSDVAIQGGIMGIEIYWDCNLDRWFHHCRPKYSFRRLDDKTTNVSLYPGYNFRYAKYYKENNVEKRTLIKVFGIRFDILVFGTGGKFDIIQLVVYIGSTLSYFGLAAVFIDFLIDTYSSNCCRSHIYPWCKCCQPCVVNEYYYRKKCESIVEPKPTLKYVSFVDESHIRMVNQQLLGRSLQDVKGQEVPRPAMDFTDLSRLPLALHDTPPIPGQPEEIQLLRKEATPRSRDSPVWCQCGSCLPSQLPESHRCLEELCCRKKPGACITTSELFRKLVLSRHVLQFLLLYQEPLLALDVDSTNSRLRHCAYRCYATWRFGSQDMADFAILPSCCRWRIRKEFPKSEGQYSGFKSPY

SMILES | remaining activity at 10 µM [%]
C[C@H]1Cn2c(nnc2-c2cocn2)C(=O)N1Cc1cccc(C(F)(F)F)c1Cl [Example 21, (6S)-7-[2-Chloro-3-(trifluoromethyl)benzyl]-6-methyl-3-(1,3-oxazol-4-yl)-6,7-dihydro[1,2,4]triazolo[4,3-a]pyrazin-8(5H)-one] | -3.4
C[C@H]1Cn2c(nnc2-c2ccn(C)n2)C(=O)N1Cc1cccc(C(F)(F)F)c1Cl [Example 23, (6S)-7-[2-Chloro-3-(trifluoromethyl)benzyl]-6-methyl-3-(1-methyl-1H-pyrazol-3-yl)-6,7-dihydro[1,2,4]triazolo[4,3-a]pyrazin-8(5H)-one] | -7
C[C@H]1Cn2c(nnc2-c2cnn(C)c2)C(=O)N1Cc1cccc(C(F)(F)F)c1Cl [Example 24, (6S)-7-[2-Chloro-3-(trifluoromethyl)benzyl]-6-methyl-3-(1-methyl-1H-pyrazol-4-yl)-6,7-dihydro[1,2,4]triazolo[4,3-a]pyrazin-8(5H)-one] | -0.7
C[C@H]1Cn2c(nnc2-c2cn[nH]c2)C(=O)N1Cc1cccc(C(F)(F)F)c1Cl [Example 25, (6S)-7-[2-Chloro-3-(trifluoromethyl)benzyl]-6-methyl-3-(1H-pyrazol-4-yl)-6,7-dihydro[1,2,4]triazolo[4,3-a]pyrazin-8(5H)-one] | 2.8
Cc1cc(-c2nnc3n2C[C@H](C)N(Cc2cccc(C(F)(F)F)c2Cl)C3=O)n[nH]1 [Example 26, (6S)-7-[2-Chloro-3-(trifluoromethyl)benzyl]-6-methyl-3-(5-methyl-1H-pyrazol-3-yl)-6,7-dihydro[1,2,4]triazolo[4,3-a]pyrazin-8(5H)-one] | -3.7
C[C@H]1Cn2c(nnc2-c2ncccn2)C(=O)N1Cc1cccc(C(F)(F)F)c1Cl [Example 27, (6S)-7-[2-Chloro-3-(trifluoromethyl)benzyl]-6-methyl-3-pyrimidin-2-yl-6,7-dihydro[1,2,4]triazolo[4,3-a]pyrazin-8(5H)-one] | -0.7
C[C@H]1Cn2c(nnc2-c2ccc(F)cn2)C(=O)N1Cc1cccc(C(F)(F)F)c1Cl [Example 30, (6S)-7-[2-Chloro-3-(trifluoromethyl)benzyl]-3-(5-fluoropyridin-2-yl)-6-methyl-6,7-dihydro[1,2,4]triazolo[4,3-a]pyrazin-8(5H)-one] | 3.4
C[C@H]1Cn2c(nnc2-c2ncc(F)cn2)C(=O)N1Cc1cccc(C(F)(F)F)c1Cl [Example 34, (6S)-7-[2-Chloro-3-(trifluoromethyl)benzyl]-3-(5-fluoropyrimidin-2-v1)-6-methyl-6,7-dihydro[1,2,4]triazolo[4,3-a]pyrazin-8(5H)-one] | 0.8
Cc1nc(-c2nnc3n2C[C@H](C)N(Cc2cccc(C(F)(F)F)c2Cl)C3=O)cs1 [Example 36, (6S)-7-[2-Chloro-3-(trifluoromethyl)benzyl]-6-methyl-3-(2-methyl-1,3-thiazol-4-yl)-6,7-dihydro[1,2,4]triazolo[4,3-a]pyrazin-8(5H)-one] | 2.8

Next, values leading:

remaining activity at 10 µM [%] | SMILES
-6.2 | C[C@H]1Cn2c(nnc2-c2ccccn2)C(=O)N1Cc1cccc(C(F)(F)F)c1Cl [Example 18, (6S)-7-[2-Chloro-3-(trifluoromethyl)benzyl]-6-methyl-3-pyridin-2-yl-6,7-dihydro[1,2,4]triazolo[4,3-a]pyrazin-8(5H)-one]
-9.5 | Cc1cnc(-c2nnc3n2C[C@H](C)N(Cc2cccc(C(F)(F)F)c2Cl)C3=O)cn1 [Example 19, (6S)-7-[2-Chloro-3-(trifluoromethyl)benzyl]-6-methyl-3-(5-methylpyrazin-2-yl)-6,7-dihydro[1,2,4]triazolo[4,3-a]pyrazin-8(5H)-one]
4.7 | C[C@H]1Cn2c(nnc2-c2ncco2)C(=O)N1Cc1cccc(C(F)(F)F)c1Cl [Example 20, (6S)-7-[2-Chloro-3-(trifluoromethyl)benzyl]-6-methyl-3-(1,3-oxazol-2-yl)-6,7-dihydro[1,2,4]triazolo[4,3-a]pyrazin-8(5H)-one]
-3.9 | C[C@H]1Cn2c(nnc2-c2cnco2)C(=O)N1Cc1cccc(C(F)(F)F)c1Cl [Example 22, (6S)-7-[2-Chloro-3-(trifluoromethyl)benzyl]-6-methyl-3-(1,3-oxazol-5-yl)-6,7-dihydro[1,2,4]triazolo[4,3-a]pyrazin-8(5H)-one]
-11.7 | C[C@H]1Cn2c(nnc2-c2cc[nH]n2)C(=O)N1Cc1cccc(C(F)(F)F)c1Cl [Example 28, (6S)-7-[2-Chloro-3-(trifluoromethyl)benzyl]-6-methyl-3-(1H-pyrazol-3-yl)-6,7-dihydro[1,2,4]triazolo[4,3-a]pyrazin-8(5H)-one]
-3.4 | C[C@H]1Cn2c(nnc2-c2cccnc2)C(=O)N1Cc1cccc(C(F)(F)F)c1Cl [Example 29, (6S)-7-[2-Chloro-3-(trifluoromethyl)benzyl]-6-methyl-3-pyridin-3-yl-6,7-dihydro[1,2,4]triazolo[4,3-a]pyrazin-8(5H)-one]
3 | C[C@H]1Cn2c(nnc2-c2nccs2)C(=O)N1Cc1cccc(C(F)(F)F)c1Cl [Example 31, (6S)-7-[2-Chloro-3-(trifluoromethyl)benzyl]-6-methyl-3-(1,3-thiazol-2-yl)-6,7-dihydro[1,2,4]triazolo[4,3-a]pyrazin-8(5H)-one]
3.8 | C[C@H]1Cn2c(nnc2-c2cscn2)C(=O)N1Cc1cccc(C(F)(F)F)c1Cl [Example 32, (6S)-7-[2-Chloro-3-(trifluoromethyl)benzyl]-6-methyl-3-(1,3-thiazol-4-yl)-6,7-dihydro[1,2,4]triazolo[4,3-a]pyrazin-8(5H)-one]
0.9 | C[C@H]1Cn2c(nnc2-c2ccncn2)C(=O)N1Cc1cccc(C(F)(F)F)c1Cl [Example 33, (6S)-7-[2-Chloro-3-(trifluoromethyl)benzyl]-6-methyl-3-pyrimidin-4-yl-6,7-dihydro[1,2,4]triazolo[4,3-a]pyrazin-8(5H)-one]
-3.1 | COc1ccnc(-c2nnc3n2C[C@H](C)N(Cc2cccc(C(F)(F)F)c2Cl)C3=O)c1 [Example 35, (6S)-7-[2-Chloro-3-(trifluoromethyl)benzyl]-3-(4-methoxypyridin-2-yl)-6-methyl-6,7-dihydro[1,2,4]triazolo[4,3-a]pyrazin-8(5H)-one]
9 | C[C@H]1Cn2c(nnc2-c2cncs2)C(=O)N1Cc1cccc(C(F)(F)F)c1Cl [Example 37, (6S)-7-[2-Chloro-3-(trifluoromethyl)benzyl]-6-methyl-3-(1,3-thiazol-5-yl)-6,7-dihydro[1,2,4]triazolo[4,3-a]pyrazin-8(5H)-one]
19.8 | C[C@H]1Cn2c(nnc2-c2csc(C(F)(F)F)n2)C(=O)N1Cc1cccc(C(F)(F)F)c1Cl [Example 38, (6S)-7-[2-Chloro-3-(trifluoromethyl)benzyl]-6-methyl-3-[2-(trifluoromethyl)-1,3-thiazol-4-yl]-6,7-dihydro[1,2,4]triazolo[4,3-a]pyrazin-8(5H)-one]
20.3 | Cc1nc(C)c(-c2nnc3n2C[C@H](C)N(Cc2cccc(C(F)(F)F)c2Cl)C3=O)s1 [Example 39, (6S)-7-[2-Chloro-3-(trifluoromethyl)benzyl]-3-(2,4-dimethyl-1,3-thiazol-5-yl)-6-methyl-6,7-dihydro[1,2,4]triazolo[4,3-a]pyrazin-8(5H)-one]
